# Source: patent US20240092829A1, “PEPTIDE HAVING PROTECTIVE ACTIVITY AGAINST CELL DAMAGE CAUSED BY PARTICULATE MATTER, AND USES FOR SAME” (CAREGEN CO., LTD., priority 2020, published 2024)
# Peptide text beside a SMILES is read from it.
# Columns and labels:
# cytochrome P450 [1] = assay: Cytochrome P450 activity in A549 cells (P450-Glo Assay kit); format: cell-based; details: A549 human alveolar epithelial cells; peptide pretreatment 1 hour at 20, 100, 200 μM; then 50 μg/cm^2 urban particulate matter 24 hours; FIG. 4
# Description: In addition, in order to confirm whether the peptide of the present invention can suppress respiratory damage caused by particulate matter, an experiment for measuring the activity of cytochrome P450 was also performed on A549 cells, which are human alveolar epithelial cells.
# First, human alveolar epithelial cells, A549 cells were seeded into a 96-well plate at a density of 1.2×10^4 cells/well. After overnight incubation, the media were replaced with serum-free media. The alveolar epithelial cells, A549 cells were pretreated with the synthesized peptides for 1 hour at each concentration (20 μM, 100 μM, and 200 μM). Then, the cells were treated with 50 μg/cm^2 of urban particulate matter (Sigma, NIST1648A) for 24 hours. After the treated cells were collected, the activity of cytochrome P450 was measured using P450-Glo™ Assay kit (Promega).
# cytochrome P450 [2] = assay: Cytochrome P450 activity in HaCaT cells (P450-Glo Assay kit); format: cell-based; details: HaCaT human keratinocytes; peptide pretreatment 1 hour at 20, 100, 200 μM; then 50 μg/cm^2 urban particulate matter 24 hours; FIG. 3
# Description: When polyaromatic hydrocarbons (PAHs) present in particulate matter penetrate into cells and bind to AHR, it promotes nuclear translocation of AHR. It is known that the AHR translocated into the nucleus forms a complex AHR/ARNT with an AHR nuclear translocator (ARNT), and this complex act as a transcription factor to promote the expression of cytochrome P450 (CYPs). In order to confirm the effect of the synthesized peptide in inhibiting cell damage caused by particulate matter, an experiment was performed for confirming whether the peptide inhibits the activity of cytochrome P450 after the cells were treated with particulate matter.
# First, HaCaT cells, which are human keratinocytes, were seeded into a 96-well plate at a density of 1×10^4 cells/well. After overnight incubation, the media were replaced with serum-free media. The keratinocytes, HaCaT were pretreated with the synthesized peptides for 1 hour at each concentration (20 μM, 100 μM, and 200 μM). Then, the cells were treated with 50 μg/cm^2 of urban particulate matter (Sigma, NIST1648A) for 24 hours. After the keratinocytes were collected, the activity of cytochrome P450 was measured using P450-Glo™ Assay kit (Promega).
smiles,measurement,setting,value
"CSCC[C@H](NC(=O)[C@H](Cc1ccc(O)cc1)NC(=O)[C@@H](N)Cc1c[nH]c2ccccc12)C(=O)O [SEQ ID NO: 1, Trp Tyr Met] (H-Trp-Tyr-Met-OH; N-terminus and C-terminus assumed)",activity of cytochrome P450 increased by the treatment of particulate matter,cytochrome P450 [1],reduced
same,activity of cytochrome P450 increased by the treatment of particulate matter,cytochrome P450 [2],reduced
